Data published in the supplement of paper PMC10307832.

Columns and labels:
Assay in all cases: relative viability (nuclei count vs DMSO), 5 days (fraction); higher = more cells survive
Dasatinib + Olaparib = compound: Cc1nc(Nc2ncc(C(=O)Nc3c(C)cccc3Cl)s2)cc(N2CCN(CCO)CC2)n1 [Dasatinib] + O=C(c1cc(Cc2n[nH]c(=O)c3ccccc23)ccc1F)N1CCN(C(=O)C2CC2)CC1 [Olaparib] (partner 8 µM)
How it was run: (§1)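 For relative viability, nuclei counts in treated wells were divided by those in vehicle wells. Lung cancer cell lines had been pin-tool dosed in 1536-well plates the day after seeding and cultured for 5 days, then fixed and stained in one step (final 0.05% Triton X-100, 1% formaldehyde, 1 ug/ml Hoechst) and imaged at 4×. Doses were one drug alone or a fixed anchor-drug dose plus five library-drug doses (not always all listed) in √10 steps, and values are duplicate-plate medians.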

XMD13-2 + Crizotinib = compound: C1CC1C(=O)NC2=NNC3=C2C=CC(=C3)C4=CC(=CC=C4)C(=O)NC5CC5 [XMD13-2] + C[C@@H](Oc1cc(-c2cnn(C3CCNCC3)c2)cnc1N)c1c(Cl)ccc(F)c1Cl [Crizotinib] (partner 1 µM)
How it was run: as §1

XMD13-2 + Pictilisib = compound: C1CC1C(=O)NC2=NNC3=C2C=CC(=C3)C4=CC(=CC=C4)C(=O)NC5CC5 [XMD13-2] + CS(=O)(=O)N1CCN(Cc2cc3nc(-c4cccc5[nH]ncc45)nc(N4CCOCC4)c3s2)CC1 [Pictilisib] (partner 1 µM)
How it was run: as §1

Dasatinib + Crizotinib = compound: Cc1nc(Nc2ncc(C(=O)Nc3c(C)cccc3Cl)s2)cc(N2CCN(CCO)CC2)n1 [Dasatinib] + C[C@@H](Oc1cc(-c2cnn(C3CCNCC3)c2)cnc1N)c1c(Cl)ccc(F)c1Cl [Crizotinib] (partner 1 µM)
How it was run: as §1

Row | Cell Line | relative viability (Dasatinib + Olaparib; first compound 0.005 µM) | relative viability (Dasatinib + Olaparib; first compound 0.01581 µM) | relative viability (Dasatinib + Olaparib; first compound 0.05 µM) | relative viability (Dasatinib + Olaparib; first compound 0.1581 µM) | relative viability (Dasatinib + Olaparib; first compound 0.5 µM) | relative viability (XMD13-2 + Crizotinib; first compound 0.05 µM) | relative viability (XMD13-2 + Crizotinib; first compound 0.1581 µM) | relative viability (XMD13-2 + Crizotinib; first compound 0.5 µM) | relative viability (XMD13-2 + Crizotinib; first compound 1.581 µM) | relative viability (XMD13-2 + Crizotinib; first compound 5 µM) | relative viability (XMD13-2 + Pictilisib; first compound 0.05 µM) | relative viability (XMD13-2 + Pictilisib; first compound 0.1581 µM) | relative viability (XMD13-2 + Pictilisib; first compound 0.5 µM) | relative viability (XMD13-2 + Pictilisib; first compound 1.581 µM) | relative viability (XMD13-2 + Pictilisib; first compound 5 µM) | relative viability (Dasatinib + Crizotinib; first compound 0.005 µM) | relative viability (Dasatinib + Crizotinib; first compound 0.01581 µM) | relative viability (Dasatinib + Crizotinib; first compound 0.05 µM) | relative viability (Dasatinib + Crizotinib; first compound 0.1581 µM) | relative viability (Dasatinib + Crizotinib; first compound 0.5 µM)
1 | 201T | 0.783 | 0.753 | 0.707 | 0.636 | 0.445 | 1 | 1.01 | 1 | 0.988 | 1.07 | 0.747 | 0.72 | 0.639 | 0.673 | 0.719 | 0.972 | 0.947 | 0.933 | 0.729 | 0.458
2 | LC-2-ad | 0.752 | 0.666 | 0.746 | 0.573 | 0.516 | 0.468 | 0.449 | 0.467 | 0.443 | 0.48 | 0.533 | 0.352 | 0.569 | 0.413 | 0.332 | 0.416 | 0.329 | 0.326 | 0.257 | 0.2
3 | NCI-H596 | 0.685 | 0.575 | 0.525 | 0.517 | 0.466 | 1.05 | 0.916 | 0.98 | 0.884 | 1.05 | 0.447 | 0.406 | 0.351 | 0.384 | 0.411 | 0.966 | 0.811 | 0.637 | 0.519 | 0.315
4 | NCI-H1437 | 0.636 | 0.624 | 0.656 | 0.566 | 0.532 | 0.874 | 1.02 | 0.902 | 0.886 | 1.07 | 0.522 | 0.454 | 0.601 | 0.509 | 0.382 | 0.868 | 0.894 | 1.1 | 0.79 | 0.251
5 | NCI-H727 | 0.74 | 0.603 | 0.654 | 0.618 | 0.288 | 0.938 | 0.697 | 1 | 0.771 | 0.687 | 0.421 | 0.321 | 0.36 | 0.527 | 0.551 | 0.707 | 0.548 | 0.491 | 0.241 | 0.223
6 | PC-3 [JPC-3] | 1.22 | 1.14 | 1.16 | 1.08 | 0.609 | 1.02 | 0.897 | 0.963 | 1.01 | 0.847 | 0.746 | 0.733 | 0.777 | 0.747 | 0.724 | 0.996 | 0.986 | 1.11 | 0.955 | 0.63
7 | SW 1573 | 0.424 | 0.378 | 0.347 | 0.253 | 0.327 | 1.11 | 0.429 | 0.815 | 0.668 | 0.322 | 0.57 | 0.525 | 0.476 | 0.466 | 0.272 | 0.826 | 0.689 | 0.624 | 0.429 | 0.356
8 | NCI-H2228 | 0.847 | 0.647 | 0.714 | 0.464 | 0.273 | 0.714 | 0.442 | 0.496 | 0.445 | 0.513 | 0.44 | 0.452 | 0.566 | 0.351 | 0.402 | 0.296 | 0.431 | 0.257 | 0.152 | 0.17
